{"source": "PubChem BioAssay (NCI)", "experiment_in_all_cases": "NCI tumour cell line growth inhibition, 48 h", "key": {"HOP-92 NSCLC": {"test_system": "HOP-92 NSCLC"}, "NCI/ADR-RES ovarian": {"test_system": "NCI/ADR-RES ovarian"}, "SF-268 CNS": {"test_system": "SF-268 CNS"}, "MALME-3M melanoma": {"test_system": "MALME-3M melanoma"}, "SF-539 CNS": {"test_system": "SF-539 CNS"}, "OVCAR-3 ovarian": {"test_system": "OVCAR-3 ovarian"}, "BT-549 breast": {"test_system": "BT-549 breast"}, "U251 CNS": {"test_system": "U251 CNS"}, "OVCAR-4 ovarian": {"test_system": "OVCAR-4 ovarian"}, "COLO 205 colon": {"test_system": "COLO 205 colon"}, "786-0 renal": {"test_system": "786-0 renal"}, "MDA-MB-435": {"test_system": "MDA-MB-435"}, "TK-10 renal": {"test_system": "TK-10 renal"}, "RPMI-8226 leukemia": {"test_system": "RPMI-8226 leukemia"}, "DU-145 prostate": {"test_system": "DU-145 prostate"}, "A549 NSCLC": {"test_system": "A549 NSCLC"}, "SN12C renal": {"test_system": "SN12C renal"}, "A498 renal": {"test_system": "A498 renal"}, "HT29 colon": {"test_system": "HT29 colon"}, "NCI-H522 lung": {"test_system": "NCI-H522 lung"}, "HCC-2998 colon": {"test_system": "HCC-2998 colon"}, "ACHN renal": {"test_system": "ACHN renal"}, "M14 melanoma": {"test_system": "M14 melanoma"}, "UACC-257 melanoma": {"test_system": "UACC-257 melanoma"}, "LOX IMVI melanoma": {"test_system": "LOX IMVI melanoma"}, "OVCAR-8 ovarian": {"test_system": "OVCAR-8 ovarian"}, "PC-3 prostate": {"test_system": "PC-3 prostate"}, "HS 578T breast": {"test_system": "HS 578T breast"}, "EKVX NSCLC": {"test_system": "EKVX NSCLC"}, "SK-OV-3 ovarian": {"test_system": "SK-OV-3 ovarian"}}, "note": "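Each compound was tested at five concentrations against cells in 96-well plates for 48 hours. GI50 = concentration required for 50% inhibition of growth. TGI: total growth inhibition.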", "data": [{"smiles": "Brc1ccc(N/N=C/c2c[nH]c3ccccc23)nc1", "values": [{"measurement": "GI50", "setting": "HOP-92 NSCLC", "value": 6.66, "unit": "µM"}, {"measurement": "TGI", "setting": "HOP-92 NSCLC", "value": 57.6, "unit": "µM"}, {"measurement": "GI50", "setting": "NCI/ADR-RES ovarian", "value": 7.03, "unit": "µM"}, {"measurement": "TGI", "setting": "NCI/ADR-RES ovarian", "value": "> 100", "unit": "µM"}, {"measurement": "GI50", "setting": "SF-268 CNS", "value": 4.15, "unit": "µM"}, {"measurement": "TGI", "setting": "SF-268 CNS", "value": "> 100", "unit": "µM"}, {"measurement": "GI50", "setting": "MALME-3M melanoma", "value": "> 100", "unit": "µM"}, {"measurement": "TGI", "setting": "MALME-3M melanoma", "value": "> 100", "unit": "µM"}, {"measurement": "GI50", "setting": "SF-539 CNS", "value": 4.7, "unit": "µM"}, {"measurement": "TGI", "setting": "SF-539 CNS", "value": "> 100", "unit": "µM"}, {"measurement": "GI50", "setting": "OVCAR-3 ovarian", "value": 8.63, "unit": "µM"}, {"measurement": "TGI", "setting": "OVCAR-3 ovarian", "value": "> 100", "unit": "µM"}, {"measurement": "GI50", "setting": "BT-549 breast", "value": 0.17, "unit": "µM"}, {"measurement": "TGI", "setting": "BT-549 breast", "value": "> 100", "unit": "µM"}, {"measurement": "GI50", "setting": "U251 CNS", "value": 21, "unit": "µM"}, {"measurement": "TGI", "setting": "U251 CNS", "value": "> 100", "unit": "µM"}, {"measurement": "GI50", "setting": "OVCAR-4 ovarian", "value": 77.9, "unit": "µM"}, {"measurement": "TGI", "setting": "OVCAR-4 ovarian", "value": "> 100", "unit": "µM"}, {"measurement": "GI50", "setting": "COLO 205 colon", "value": "> 100", "unit": "µM"}, {"measurement": "TGI", "setting": "COLO 205 colon", "value": "> 100", "unit": "µM"}, {"measurement": "GI50", "setting": "786-0 renal", "value": 13.2, "unit": "µM"}, {"measurement": "TGI", "setting": "786-0 renal", "value": "> 100", "unit": "µM"}, {"measurement": "GI50", "setting": "MDA-MB-435", "value": 79.4, "unit": "µM"}, {"measurement": "TGI", "setting": "MDA-MB-435", "value": "> 100", "unit": "µM"}, {"measurement": "GI50", "setting": "TK-10 renal", "value": 48, "unit": "µM"}, {"measurement": "TGI", "setting": "TK-10 renal", "value": "> 100", "unit": "µM"}, {"measurement": "GI50", "setting": "RPMI-8226 leukemia", "value": 3.07, "unit": "µM"}, {"measurement": "TGI", "setting": "RPMI-8226 leukemia", "value": "> 100", "unit": "µM"}, {"measurement": "GI50", "setting": "DU-145 prostate", "value": 20.5, "unit": "µM"}, {"measurement": "TGI", "setting": "DU-145 prostate", "value": "> 100", "unit": "µM"}, {"measurement": "GI50", "setting": "A549 NSCLC", "value": 12.6, "unit": "µM"}, {"measurement": "TGI", "setting": "A549 NSCLC", "value": "> 100", "unit": "µM"}, {"measurement": "GI50", "setting": "SN12C renal", "value": 2.28, "unit": "µM"}, {"measurement": "TGI", "setting": "SN12C renal", "value": "> 100", "unit": "µM"}, {"measurement": "GI50", "setting": "A498 renal", "value": 35.2, "unit": "µM"}, {"measurement": "TGI", "setting": "A498 renal", "value": "> 100", "unit": "µM"}, {"measurement": "GI50", "setting": "HT29 colon", "value": 29.4, "unit": "µM"}, {"measurement": "TGI", "setting": "HT29 colon", "value": "> 100", "unit": "µM"}, {"measurement": "GI50", "setting": "NCI-H522 lung", "value": 2.53, "unit": "µM"}, {"measurement": "TGI", "setting": "NCI-H522 lung", "value": 28, "unit": "µM"}, {"measurement": "GI50", "setting": "HCC-2998 colon", "value": 9.35, "unit": "µM"}, {"measurement": "TGI", "setting": "HCC-2998 colon", "value": "> 100", "unit": "µM"}, {"measurement": "GI50", "setting": "ACHN renal", "value": 11.6, "unit": "µM"}, {"measurement": "TGI", "setting": "ACHN renal", "value": "> 100", "unit": "µM"}, {"measurement": "GI50", "setting": "M14 melanoma", "value": 78.5, "unit": "µM"}, {"measurement": "TGI", "setting": "M14 melanoma", "value": "> 100", "unit": "µM"}, {"measurement": "GI50", "setting": "UACC-257 melanoma", "value": "> 100", "unit": "µM"}, {"measurement": "TGI", "setting": "UACC-257 melanoma", "value": "> 100", "unit": "µM"}, {"measurement": "GI50", "setting": "LOX IMVI melanoma", "value": 6.47, "unit": "µM"}, {"measurement": "TGI", "setting": "LOX IMVI melanoma", "value": "> 100", "unit": "µM"}, {"measurement": "GI50", "setting": "OVCAR-8 ovarian", "value": 26.3, "unit": "µM"}, {"measurement": "TGI", "setting": "OVCAR-8 ovarian", "value": "> 100", "unit": "µM"}, {"measurement": "GI50", "setting": "PC-3 prostate", "value": 4.83, "unit": "µM"}, {"measurement": "TGI", "setting": "PC-3 prostate", "value": "> 100", "unit": "µM"}, {"measurement": "GI50", "setting": "HS 578T breast", "value": 7.45, "unit": "µM"}, {"measurement": "TGI", "setting": "HS 578T breast", "value": "> 100", "unit": "µM"}, {"measurement": "GI50", "setting": "EKVX NSCLC", "value": 4.44, "unit": "µM"}, {"measurement": "TGI", "setting": "EKVX NSCLC", "value": "> 100", "unit": "µM"}, {"measurement": "GI50", "setting": "SK-OV-3 ovarian", "value": 56.2, "unit": "µM"}]}]}
